According to patent US20050171037A1, “Therapeutic combinations” (Agouron Pharmaceuticals, Inc., priority 2004, published 2005):
Where two headings read alike, the source gives them in different places.

Key:
[1] = Compound A pharmacokinetics after oral administration of a single dose with and without ritonavir, human subjects, fed; type: in vivo; details: for Ae % (drug recovered unchanged in urine, percent of administered dose): arithmetic mean
[2] = as above; type: in vivo; details: for half-life / Cmax / AUC / Tmax: plasma, po; for half-life / Ae % (drug recovered unchanged in urine, percent of administered dose): arithmetic mean; for Cmax / AUC: geometric mean; for AUC: read-out: AUC (area under the concentration-time curve from time 0 to infinity); for Tmax: median
Experimental: Nos. 11/008325, filed Dec. 8, 2004, and 60/591,351, filed Jul. 26, 2004, all of which are hereby incorporated by reference for this purpose. A total of 30 human subjects were administered a single 100 mg, 300 mg, 800 mg, 1000 mg, 1500 mg, 2000 mg, or 3000 mg dose of a spray-dried composition comprising 90 wt % amorphous Compound A and 10 wt % hydroxypropyl methyl cellulose acetate succinate (HPMCAS), under fed conditions according to the schedule found in Table I. […] Each plasma sample was analyzed for the presence of Compound A and the following pharmacokinetic parameters for Compound A were determined for each subject: area under the concentration-time curve from time 0 extrapolated to infinity (AUC), maximum observed plasma concentration (Cmax), time to first occurrence of Cmax (Tmax), terminal phase plasma half-life (t1/2), and cumulative amount of drug recovered unchanged in the urine expressed as a percentage of administered dose (Ae %). The mean to t1/2 value for the 100 mg dose group was calculated from three subjects. The t1/2 values for three subjects at this dose level were deemed unreliable owing to poor estimates of the terminal phase rate constant from regressions (r^2 values less than 0.9) and, therefore, were not included in the summary statistics. Similarly, the th for one subject in the 800 mg dose group was deemed unreliable owing to poor estimate of the terminal phase rate constant from regression (r^2 values less than 0.9) and therefore was not included in the summary statistics.

[3] = single oral dose 400 mg + ritonavir (100 mg every 12 hours for 3 doses)
[4] = single oral dose 800 mg + ritonavir (100 mg every 12 hours for 3 doses)
[5] = 100 mg, single oral dose 100 mg, without ritonavir
[6] = 300 mg, single oral dose 300 mg, without ritonavir
[7] = 800 mg, single oral dose 800 mg, without ritonavir
[8] = 1000 mg, single oral dose 1000 mg, without ritonavir
[9] = 1500 mg, single oral dose 1500 mg, without ritonavir
[10] = 2000 mg, single oral dose 2000 mg, without ritonavir
[11] = 3000 mg, single oral dose 3000 mg, without ritonavir

- AUC ([1]; plasma, single oral dose 400 mg + ritonavir (100 mg every 12 hours for 3 doses), geometric mean, read-out: AUC (area under the concentration-time curve from time 0 to infinity)): 42500 ng·h/mL
- AUC (area under the concentration-time curve from time 0 to infinity) ([1]; single oral dose 800 mg + ritonavir (100 mg every 12 hours for 3 doses), geometric mean): 71400 ng·h/mL
- half-life ([2]; 100 mg, single oral dose 100 mg, without ritonavir, N = 3, read-out: t½ (terminal phase plasma half-life) (converted)): 8.63 h
- Cmax [2, 5]: 160 ng/mL
- AUC [2, 5]: 740 ng·h/mL
- Tmax [2, 5]: 3 h
- half-life ([2]; 300 mg, single oral dose 300 mg, without ritonavir, read-out: t½ (terminal phase plasma half-life) (converted)): 8.17 h
- Cmax [2, 6]: 720 ng/mL
- AUC [2, 6]: 3560 ng·h/mL
- Tmax [2, 6]: 2.5 h
- half-life ([2]; 800 mg, single oral dose 800 mg, without ritonavir, N = 5, read-out: t½ (terminal phase plasma half-life) (converted)): 11.7 h
- Cmax [2, 7]: 3120 ng/mL
- AUC [2, 7]: 15800 ng·h/mL
- Tmax [2, 7]: 3 h
- half-life ([2]; 1000 mg, single oral dose 1000 mg, without ritonavir, read-out: t½ (terminal phase plasma half-life) (converted)): 7.28 h
- Cmax [2, 8]: 3350 ng/mL
- AUC [2, 8]: 16900 ng·h/mL
- Tmax [2, 8]: 3 h
- half-life ([2]; 1500 mg, single oral dose 1500 mg, without ritonavir, read-out: t½ (terminal phase plasma half-life) (converted)): 9.17 h
- Cmax [2, 9]: 7040 ng/mL
- AUC [2, 9]: 41900 ng·h/mL
- Tmax [2, 9]: 4 h
- half-life ([2]; 2000 mg, single oral dose 2000 mg, without ritonavir, read-out: t½ (terminal phase plasma half-life) (converted)): 10.4 h
- Cmax [2, 10]: 7490 ng/mL
- AUC [2, 10]: 44200 ng·h/mL
- Tmax [2, 10]: 2 h
- half-life ([2]; 3000 mg, single oral dose 3000 mg, without ritonavir, read-out: t½ (terminal phase plasma half-life) (converted)): 7.6 h
- Cmax [2, 11]: 11200 ng/mL
- AUC [2, 11]: 86400 ng·h/mL
- Tmax [2, 11]: 4 h
- half-life ([2]; single oral dose 400 mg + ritonavir (100 mg every 12 hours for 3 doses), read-out: t½ (terminal phase plasma half-life) (converted)): 8.56 h
- Cmax [2, 3]: 5210 ng/mL
- Tmax [2, 3]: 3.51 h
- half-life ([2]; single oral dose 800 mg + ritonavir (100 mg every 12 hours for 3 doses), read-out: t½ (terminal phase plasma half-life) (converted)): 8.39 h
- Cmax [2, 4]: 7350 ng/mL
- Tmax [2, 4]: 4 h
SMILES: C=CCNC(=O)[C@H]1N(C(=O)[C@@H](O)[C@H](Cc2ccccc2)NC(=O)c2cccc(O)c2C)CSC1(C)C [Compound A, (4R)-N-allyl-3-{(2S,3S)-2-hydroxy-3-[(3-hydroxy-2-methylbenzoyl)amino]-4-phenylbutanoyl}-5,5-dimethyl-1,3-thiazolidine-4-carboxamide]
- Ae % (drug recovered unchanged in urine, percent of administered dose) [1, 3]: 20.4%
- Ae % (drug recovered unchanged in urine, percent of administered dose) [1, 4]: 19.4%
- Ae % (drug recovered unchanged in urine, percent of administered dose) ([2]; single oral dose 100 mg, without ritonavir): 1.34%
- Ae % (drug recovered unchanged in urine, percent of administered dose) ([2]; single oral dose 300 mg, without ritonavir): 2.04%
- Ae % (drug recovered unchanged in urine, percent of administered dose) ([2]; single oral dose 800 mg, without ritonavir): 4.00%
- Ae % (drug recovered unchanged in urine, percent of administered dose) ([2]; single oral dose 1000 mg, without ritonavir): 4.21%
- Ae % (drug recovered unchanged in urine, percent of administered dose) ([2]; single oral dose 2000 mg, without ritonavir): 7.92%
- Ae % (drug recovered unchanged in urine, percent of administered dose) ([2]; single oral dose 3000 mg, without ritonavir): 9.05%
